Assay results reported in patent US20250228842A1, “USES OF A SOMATOSTATIN MODULATOR FOR THE TREATMENT OF CARCINOID SYNDROME” (Crinetics Pharmaceuticals, Inc., priority 2022, published 2025).
Blank lines part the entries; values can stand above or below the compound they belong to.

Assays:
[1] = tested on: growth hormone (GH) levels; assay: Phase 2 acromegaly trials (ACROBAT Edge / Evolve): GH level; assay type: in vivo, human
Procedure: (§1) An open label exploratory study designed to evaluate the safety, efficacy, and pharmacokinetics of Compound A (also known as paltusotine) in subjects with acromegaly that are treated with somatostatin analogue (SSA) based treatment regimens.
(§2) Secondary Outcome Measures: 1) Change in IGF-1 levels [Time Frame: From Week 10 to Week 13]. 2) Change in growth hormone (GH) levels [Time Frame: From Week 8 to Week 13]. 3) Change in patient assessed symptoms of acromegaly [Time Frame: From Week 10 to Week 13]. Total score computed by adding each of the individual acromegaly symptom intensities (headache pain, joint pain, sweating, fatigue, weakness in legs, swelling, numbness or tingling).
(§3) The primary hypothesis was that the group would show no change in the median IGF-1 at Week 13 versus baseline.

[2] = Phase 1 multi-cohort single dose study, plasma pharmacokinetics in healthy subjects; assay type: in vivo, human
Procedure: Cohort 1: To characterize performance of 10 mg tablets prepared by spray-dried dispersion (SDD) of Compound A-HCl salt.
Cohort 2: To evaluate the relative bioavailability of 10 mg SDD tablets compared to the Compound A-HCl hot melt granulation (HMG) formulation, 10 mg capsules. To determine the effect of timing of food administration on pharmacokinetics of low dose of the 10 mg SDD tablets.
Cohort 5: To determine the effect of the proton-pump inhibitor (PPI), lansoprazole, on the pharmacokinetics of a 60 mg dose of SDD tablets. To determine the effect of a low-fat meal on the pharmacokinetics of a 60 mg dose of SDD tablets.
The SDD tablets were evaluated. Up to twelve (12) healthy male and female subjects were enrolled in each cohort. Cohort 1 consisted of 4 periods: In Period 1, subjects were administered a proton-pump inhibitor (lansoprazole, 15 mg BID for 3 days (from Day-3), taken orally at least 30 min prior to a meal, once in the morning and once in the evening). On the fourth day (Day 1 of study), fasted subjects will take the last dose of lansoprazole (15 mg) 60 min prior to 20 mg Compound A (2×10 mg of the SDD tablets). In Period 2, fasted subjects were administered 20 mg Compound A (2×10 mg of the SDD tablets). In Period 3, fasted subjects were administered 20 mg Compound A (2×10 mg of the SDD tablets) with a high-fat, high-calorie meal. In Period 4, fasted subjects will take up to 80 mg Compound A (up to 8×10 mg of the SDD tablets). The actual dose was selected based on the pharmacokinetic data from Period 2.
For Period 1: In the evening before dosing (Day −1), subjects were administered their evening dose of 15 mg lansoprazole, provided an evening meal at least 30 min after administration of lansoprazole, and then were required to fast overnight (≥10 hr) on Day −1. […]
The cohort consisted of three periods. The PK of 60 mg paltusotine administered as 3×20 mg SDD tablets was assessed using the following criteria: effect of a low-fat meal on the PK of paltusotine (Period 1 and Period 3) and effect of the PPI lansoprazole on the PK of paltusotine (Period 2) as follows: […]

[3] = tested on: insulin-like growth factor-1 (IGF-1) level; assay: Phase 2 acromegaly trials (ACROBAT Edge / Evolve): IGF-1 level; assay type: in vivo, human
Procedure: as §1
10 mg HMG capsule formulation. Multiple capsules were swallowed with water depending on dose specified for a given period/cohort.
Primary Outcome Measures: Change from baseline (mean of Screening values) in insulin-like growth factor-1 (IGF-1) level [Time Frame: 13 Weeks].
Primary Outcome Measures: Proportion of subjects who meet responder criteria (based on the mean of two consecutive insulin-like growth factor-1 [IGF-1] measurements ≤upper limit of normal [ULN]) (Time Frame: 13 Weeks).
as §2, §3

[4] = Tolerability in studies on subjects with acromegaly; assay type: in vivo, human; conditions: 40 mg
carcinoid syndrome = conditions: cited from earlier work
[5] = after 13 weeks of treatment, acromegaly patients previously treated with injected SRL depots

reduction of exposures (Cmax and AUC) ([2]; when administered with PPI, 60 mg): ~40%
reduction of exposures (Cmax and AUC) ([2]; when administered with high-fat meal): > 80%
reduction of exposures (Cmax and AUC) ([2]; when administered with low-fat meal, 60 mg): ~60%
SMILES: N#Cc1cccc(-c2ccc3ncc(-c4cc(F)cc(F)c4)c(N4CCC(N)CC4)c3c2)c1O [Compound A, 3-(4-(4-amino-piperidin-1-yl)-3-(3,5-difluoro-phenyl)-quinolin-6-yl)-2-hydroxy-benzonitrile]
GH levels vs baseline [1, 5]: did not significantly change from baseline
GH after withdrawal ([1]; after withdrawal): Rise in GH after withdrawal
IGF-1 levels vs baseline [3, 5]: did not significantly change from baseline
IGF-1 after withdrawal ([3]; within 2 weeks after withdrawal): Rise in IGF-1 after withdrawal

SMILES: Cl.N#Cc1cccc(-c2ccc3ncc(-c4cc(F)cc(F)c4)c(N4CCC(N)CC4)c3c2)c1O [Compound A-HCl, 3-[4-(4-amino-piperidin-1-yl)-3-(3,5-difluoro-phenyl)-quinolin-6-yl]-2-hydroxy-benzonitrile monohydrochloride]
tolerability [4]: well tolerated
steady state IGF-1 change vs baseline (last LA-SRL injection) ([3]; 10 and 20 mg per day, acromegaly patients previously treated with LA-SRLs): above baseline
steady state IGF-1 change from baseline (last LA-SRL injection) ([3]; 30/day and 40 mg/day, acromegaly patients previously treated with LA-SRLs): near zero

SMILES: C[C@@H](O)[C@@H]1NC(=O)[C@H](CCCCN)NC(=O)[C@@H](Cc2c[nH]c3ccccc23)NC(=O)[C@H](Cc2ccccc2)NC(=O)[C@@H](NC(=O)[C@H](N)Cc2ccccc2)CSSC[C@@H](C(=O)N[C@H](CO)[C@@H](C)O)NC1=O [octreotide]
patients with carcinoid syndrome who respond (carcinoid syndrome): 80%
